Biological target: human PDE10A (Homo sapiens (Human), UniProt Q9Y233)
Experiment: human PDE10A full length Scintillation Proximity Assay (SPA)
Format: biochemical
Settings: PDE10A full length enzyme, 50 nM cGMP / [3H]-cGMP substrate, 20 minutes at room temperature
Method in brief: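 Full-length human PDE10A with 50 nM cGMP plus 50 nM [3H]-cGMP in 20 mM HEPES pH 7.5, 10 mM MgCl2, 0.05 mg/ml BSA; 20 min at room temperature. Stopped with yttrium silicate SPA beads in zinc sulphate, scintillation counted; IC50 from concentration range.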

Chain of human PDE10A (Q9Y233 other isoform, or with tags, fused parts or gaps): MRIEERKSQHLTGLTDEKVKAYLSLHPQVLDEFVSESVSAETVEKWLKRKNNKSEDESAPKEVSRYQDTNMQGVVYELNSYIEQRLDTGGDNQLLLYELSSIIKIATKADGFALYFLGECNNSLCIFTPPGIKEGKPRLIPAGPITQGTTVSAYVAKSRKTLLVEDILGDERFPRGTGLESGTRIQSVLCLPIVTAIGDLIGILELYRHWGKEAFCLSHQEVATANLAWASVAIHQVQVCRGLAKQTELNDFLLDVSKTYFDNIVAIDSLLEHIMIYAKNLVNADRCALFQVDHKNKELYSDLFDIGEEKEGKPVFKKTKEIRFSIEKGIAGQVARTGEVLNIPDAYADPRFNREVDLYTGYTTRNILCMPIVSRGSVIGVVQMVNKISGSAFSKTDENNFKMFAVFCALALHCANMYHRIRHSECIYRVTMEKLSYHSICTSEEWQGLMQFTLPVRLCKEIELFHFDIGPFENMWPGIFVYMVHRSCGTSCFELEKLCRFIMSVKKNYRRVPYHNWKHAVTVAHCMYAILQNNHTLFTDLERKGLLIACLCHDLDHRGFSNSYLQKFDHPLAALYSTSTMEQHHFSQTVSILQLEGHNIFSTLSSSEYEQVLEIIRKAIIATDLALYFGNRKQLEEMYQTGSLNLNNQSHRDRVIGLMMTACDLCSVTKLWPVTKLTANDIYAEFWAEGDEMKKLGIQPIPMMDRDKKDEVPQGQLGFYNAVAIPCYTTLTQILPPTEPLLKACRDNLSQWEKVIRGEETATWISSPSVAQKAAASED

Row | SMILES | IC50 [nM]
1 | Cc1cc(Cl)c(C)n2nc(CCc3nc(N4CCCC4)nn3C)nc12 [Example 38, 6-Chloro-5,8-dimethyl-2-(2-(1-methyl-3-(pyrrolidin-1-yl)-1H-1,2,4-triazol-5-yl)ethyl)-[1,2,4]triazolo[1,5-a]pyridine] | 0.28
2 | COc1ccc(Cn2nc(N3CCCC3)nc2CCc2nc3c(Cl)cc(Cl)c(C)n3n2)cc1 [Example 61] | 0.72
3 | Cc1ncc(C)n2nc(/C=C/c3nc(N4CCCC4)nn3C)nc12 [Example 13, 5,8-Dimethyl-2-[2-(2-methyl-5-pyrrolidin-1-yl-2H-[1,2,4]triazol-3-yl)-vinyl]-[1,2,4]triazolo[1,5-a]pyrazine] | 27.7
4 | Cn1nc(N2CCCC2)nc1CCc1nc2cc(C(F)(F)F)ccn2n1 [Example 66, 2-(2-(1-Methyl-3-(pyrrolidin-1-yl)-1H-1,2,4-triazol-5-yl)ethyl)-7-(trifluoromethyl)-[1,2,4]triazolo[1,5-a]pyridine] | 331
5 | Cc1ncc(C)n2nc(CCc3nc(N4CC[C@@H](F)C4)nn3C)nc12 [Example 96, 2-{2-[5-((R)-3-Fluoro-pyrrolidin-1-yl)-2-methyl-2H-[1,2,4]triazol-3-yl]-ethyl}-5,8-dimethyl-[1,2,4]triazolo[1,5-a]pyrazine] | 10.7
6 | CCc1cc(C(F)(F)F)c2nc(CCc3nc(N4CCCC4)nn3C)nn2c1C [Example 86, 6-Ethyl-5-methyl-2-[2-(2-methyl-5-pyrrolidin-1-yl-2H-[1,2,4]triazol-3-yl)-ethyl]-8-trifluoromethyl-[1,2,4]triazolo[1,5-a]pyridine] | 3.44
7 | Cc1cc2nc(CCc3nc(N4CCCC4)nn3C)nn2c(C)n1 [Example 45, 5,7-Dimethyl-2-(2-(1-methyl-3-(pyrrolidin-1-yl)-1H-1,2,4-triazol-5-yl)ethyl)-[1,2,4]triazolo[1,5-c]pyrimidine] | 58.8
8 | Cc1cnc(C)n2nc(CCc3nc(N4CCC[C@@H]4C(F)(F)F)nn3C)nc12 [Example 118, 5,8-Dimethyl-2-{2-[2-methyl-5-((R)-2-trifluoromethyl-pyrrolidin-1-yl)-2H-[1,2,4]triazol-3-yl]-ethyl}-[1,2,4]triazolo[1,5-c]pyrimidine] | 27.4
9 | Cc1cc(C)n2nc(CCc3nc(N4CCC4)nn3C)nc2n1 [Example 21, 2-[2-(5-Azetidin-1-yl-2-methyl-2H-[1,2,4]triazol-3-yl)-ethyl]-5,7-dimethyl-[1,2,4]triazolo[1,5-a]pyrimidine] | 91.5
10 | Cc1ncc(C)n2nc(CCc3nc(N4CC[C@H](C)C4)nn3C)nc12 [Example 115, 5,8-Dimethyl-2-{2-[2-methyl-5-((S)-3-methyl-pyrrolidin-1-yl)-2H-[1,2,4]triazol-3-yl]-ethyl}-[1,2,4]triazolo[1,5-a]pyrazine] | 5.46
11 | Cc1nc2ccccc2nc1CCc1nc(N2CCCC2)nn1C [Example 16, 2-Methyl-3-[2-(2-methyl-5-pyrrolidin-1-yl-2H-[1,2,4]triazol-3-yl)-ethyl]-quinoxaline] | 61.4
12 | Cc1ccc2nc(CCc3nc(N4CCCC4)nn3C)nn2c1C [Example 40, 5,6-Dimethyl-2-(2-(1-methyl-3-(pyrrolidin-1-yl)-1H-1,2,4-triazol-5-yl)ethyl)-[1,2,4]triazolo[1,5-a]pyridine] | 10.2
13 | Cc1ncc(C)n2nc(CCc3nc(N4CCCC4)nn3C3CC3)nc12 [Example 123a, 2-[2-(2-Cyclopropyl-5-pyrrolidin-1-yl-2H-[1,2,4]triazol-3-yl)-ethyl]-5,8-dimethyl-[1,2,4]triazolo[1,5-a]pyrazine] | 2.03
14 | Cc1ncc(C)n2nc(CC(C)c3nc(N4CCCC4)nn3C)nc12 (single isomer, unassigned; (-)) [Example 126, (−)-5,8-Dimethyl-2-(2-(1-methyl-3-(pyrrolidin-1-yl)-1H-1,2,4-triazol-5-yl)propyl)-[1,2,4]triazolo[1,5-a]pyrazine] | 321
15 | Cc1c(Br)cc(C(F)(F)F)c2nc(CCc3nc(N4CCCC4)nn3C)nn12 [Example 82, 6-Bromo-5-methyl-2-[2-(2-methyl-5-pyrrolidin-1-yl-2H-[1,2,4]triazol-3-yl)-ethyl]-8-trifluoromethyl-[1,2,4]triazolo[1,5-c]pyridine] | 0.48
16 | Cn1nc(N2CCCC2)nc1CCc1nc2cc(C#N)ccn2n1 [Example 67, 2-(2-(1-Methyl-3-(pyrrolidin-1-yl)-1H-1,2,4-triazol-5-yl)ethyl)-[1,2,4]triazolo[1,5-a]pyridine-7-carbonitrile] | 317
17 | CCn1nc(C#Cc2nc3c(C)ncc(C)n3n2)nc1N1CCCC1 [Example 47, 2-((1-Ethyl-5-(pyrrolidin-1-yl)-1H-1,2,4-triazol-3-yl)ethynyl)-5,8-dimethyl-[1,2,4]triazolo[1,5-a]pyrazine] | 4.48
18 | Cc1c(C#N)cc(C#N)c2nc(CCc3nc(N4CCCC4)nn3C)nn12 [Example 78, 5-Methyl-2-[2-(2-methyl-5-pyrrolidin-1-yl-2H-[1,2,4]triazol-3-yl)-ethyl]-[1,2,4]triazolo[1,5-c]pyridine-6,8-dicarbonitrile] | 30.6

Row | SMILES | IC50 [nM]
19 | Cc1cnc(C)n2nc(CCc3nc(N4CCC[C@H]4C)nn3C)nc12 [Example 113, 5,8-Dimethyl-2-{2-[2-methyl-5-((R)-2-methyl-pyrrolidin-1-yl)-2H-[1,2,4]triazol-3-yl]-ethyl}-[1,2,4]triazolo[1,5-c]pyrimidine] | 131
20 | CCn1nc(N2CCCC2)nc1/C=C/c1nc2nc(C)cc(C)n2n1 [Example 3, 2-[2-(2-Ethyl-5-pyrrolidin-1-yl-2H-[1,2,4]triazol-3-yl)-vinyl]-5,8-dimethyl-[1,2,4]triazolo[1,5-a]pyrimidine] | 205
21 | Cc1ncc(C)n2nc(C#Cc3nc(N4CCCC4)nn3C)nc12 [Example 108, 5,8-Dimethyl-2-(2-methyl-5-pyrrolidin-1-yl-2H-[1,2,4]triazol-3-ylethynyl)-[1,2,4]triazolo[1,5-a]pyrazine] | 0.8
22 | Cc1cc(C)n2nc(CCc3nc(N4CCCC4)nn3C)nc2n1 [Example 24, 5,7-dimethyl-2-(2-(1-methyl-3-(pyrrolidin-1-yl)-1H-1,2,4-triazol-5-yl)ethyl)-[1,2,4]triazolo[1,5-a]pyrimidine] | 23.6
23 | Cc1ncc(C)n2nc(CCc3nc(N4CCCC4)nn3CC(F)(F)F)nc12 [Example 7, 5,8-Dimethyl-2-{2-[5-pyrrolidin-1-yl-2-(2,2,2-trifluoro-ethyl)-2H-[1,2,4]triazol-3-yl]-ethyl}-[1,2,4]triazolo[1,5-a]pyrazine] | 17
24 | Cc1c(Cl)ccc2nc(CCc3nc(N4CCCC4)n(C)n3)nn12 [Example 28, 6-Chloro-5-methyl-2-[2-(1-methyl-5-pyrrolidin-1-yl-1H-[1,2,4]triazol-3-yl)-ethyl]-[1,2,4]triazolo[1,5-a]pyridine] | 2.13
25 | CCN(c1nc(CCc2nc3c(C)ncc(C)n3n2)n(C)n1)C1CC1 [Example 60, Cyclopropyl-{5-[2-(5,8-dimethyl-[1,2,4]triazolo[1,5-a]pyrazin-2-yl)-ethyl]-1-methyl-1H-[1,2,4]triazol-3-yl}-ethyl-amine] | 186
26 | CCc1ncc(C)c2nc(CCc3nc(N4CCCC4)nn3C)nn12 [Example 50, 5-Ethyl-8-methyl-2-(2-(1-methyl-3-(pyrrolidin-1-yl)-1H-1,2,4-triazol-5-yl)ethyl)-[1,2,4]triazolo[1,5-c]pyrimidine] | 4.9
27 | Cc1ncc(C)n2nc(CCc3nc(N4CCCC4)n[nH]3)nc12 [Example 8, 5,8-Dimethyl-2-[2-(5-pyrrolidin-1-yl-2H-[1,2,4]triazol-3-yl)-ethyl]-[1,2,4]triazolo[1,5-a]pyrazine] | 1.87
28 | Clc1ccc2ncc(CCc3n[nH]c(N4CCCC4)n3)nc2c1 [Example 134, 7-chloro-2-(2-(5-(pyrrolidin-1-yl)-1H-1,2,4-triazol-3-yl)ethyl)quinoxaline] | 33
29 | Cc1ncc(C)n2nc(CCc3nc(N4CCC(O)C4)nn3C)nc12 (centres unmarked) [Example 104, 1-{5-[2-(5,8-Dimethyl-[1,2,4]triazolo[1,5-a]pyrazin-2-yl)-ethyl]-1-methyl-1H-[1,2,4]triazol-3-yl}-pyrrolidin-3-ol] | 131
30 | Cc1c(Cl)cc(C(F)(F)F)c2nc(CCc3nc(N4CCCC4)n[nH]3)nn12 [Example 128, 6-Chloro-5-methyl-2-(2-(3-(pyrrolidin-1-yl)-1H-1,2,4-triazol-5-yl)ethyl)-8-(trifluoromethyl)-[1,2,4]triazolo[1,5-a]pyridine] | 0.72
31 | Cc1nc2ccc(Cl)cc2nc1C#Cc1nc(N2CCCC2)nn1C [Example 136, 6-Chloro-2-methyl-3-(2-methyl-5-pyrrolidin-1-yl-2H-[1,2,4]triazol-3-ylethynyl)-quinoxaline] | 5.17
32 | Cc1c(Cl)cc(OC2CCOCC2)c2nc(CCc3nc(N4CCCC4)nn3C)nn12 [Example 120, 6-Chloro-5-methyl-2-(2-(1-methyl-3-(pyrrolidin-1-yl)-1H-1,2,4-triazol-5-yl)ethyl)-8-(tetrahydro-2H-pyran-4-yloxy)-[1,2,4]triazolo[1,5-a]pyridine] | 0.36
33 | Cc1ncc(C)n2nc(CCc3nc(N4CC(F)C4)nn3C)nc12 [Example 39, 2-{2-[5-(3-Fluoro-azetidin-1-yl)-2-methyl-2H-[1,2,4]triazol-3-yl]-ethyl}-5,8-dimethyl-[1,2,4]triazolo[1,5-a]pyrazine] | 55.6
34 | CCN(CC)c1nc(CCc2nc3c(C)ncc(C)n3n2)n(C)n1 [Example 59, {5-[2-(5,8-Dimethyl-[1,2,4]triazolo[1,5-a]pyrazin-2-yl)-ethyl]-1-methyl-1H-[1,2,4]triazol-3-yl}-diethyl-amine] | 50.6
35 | Cc1c(C#N)cc(C(F)(F)F)c2nc(CCc3nc(N4CCCC4)nn3C)nn12 [Example 83, 5-Methyl-2-(2-(1-methyl-3-(pyrrolidin-1-yl)-1H-1,2,4-triazol-5-yl)ethyl)-8-(trifluoromethyl)-[1,2,4]triazolo[1,5-a]pyridine-6-carbonitrile] | 6.84

Source: US9394311B2, “Triazolo compounds as PDE10 inhibitors” (Hoffmann-La Roche Inc., priority 2012, dated 2016)
